The record followed here is US20010039027A1, “Cyclitol containing carbohydrates from human tissue which regulate lipogenic activity” (priority 1996, published 2001).

This test relates to rat adipocytes. In words: Activation of lipogenesis in rat adipocytes. In kind it is cell-based. The following applies: insulin 1 nM; twenty independent lipogenesis assays. How it is done:
This was carried out on adipocytes isolated from the epididymal fat pads of young rats. Briefly adipocytes from two rat epididymial fat pads were suspended in 8 ml of Krebs Ringer bicarbonate and 250 μL of the cell suspension was incubated at 37° C. for two hours in Krebs Ringer bicarbonate, containing 1% albumin and 5 mM [U-^14C]-glucose (1 μCi/sample) with or without insulin (1 nM) or 10 μL of IPG solutions. The rate of incorporation of uniformly labelled glucose into fatty acids was used as a measure of lipogenesis.

With Insulin, the “Lipogenesis (lipogenic activity)” value is 5160 ± 310 (n-20) milliunits/g liver.
